Measured values published in patent publication US20250127904A1, “SIGLEC LIGANDS, CONJUGATES, AND METHODS OF USE THEREOF” (Osprey Biopharmaceuticals, Inc., priority 2023, published 2025).
pKd: −log10 of the molar value.

What was measured:
[1] = molecular target: T1, biotinylated mouse siglec-2-Fc-Avi (Mus musculus, UniProt P35329); experiment: SPR binding to mouse siglec-2/CD22; details: steady-state analysis, read-out: Mouse CD22 affinity
T1 construct: made in house
T1 sequence (P35329 22-708 limits assumed): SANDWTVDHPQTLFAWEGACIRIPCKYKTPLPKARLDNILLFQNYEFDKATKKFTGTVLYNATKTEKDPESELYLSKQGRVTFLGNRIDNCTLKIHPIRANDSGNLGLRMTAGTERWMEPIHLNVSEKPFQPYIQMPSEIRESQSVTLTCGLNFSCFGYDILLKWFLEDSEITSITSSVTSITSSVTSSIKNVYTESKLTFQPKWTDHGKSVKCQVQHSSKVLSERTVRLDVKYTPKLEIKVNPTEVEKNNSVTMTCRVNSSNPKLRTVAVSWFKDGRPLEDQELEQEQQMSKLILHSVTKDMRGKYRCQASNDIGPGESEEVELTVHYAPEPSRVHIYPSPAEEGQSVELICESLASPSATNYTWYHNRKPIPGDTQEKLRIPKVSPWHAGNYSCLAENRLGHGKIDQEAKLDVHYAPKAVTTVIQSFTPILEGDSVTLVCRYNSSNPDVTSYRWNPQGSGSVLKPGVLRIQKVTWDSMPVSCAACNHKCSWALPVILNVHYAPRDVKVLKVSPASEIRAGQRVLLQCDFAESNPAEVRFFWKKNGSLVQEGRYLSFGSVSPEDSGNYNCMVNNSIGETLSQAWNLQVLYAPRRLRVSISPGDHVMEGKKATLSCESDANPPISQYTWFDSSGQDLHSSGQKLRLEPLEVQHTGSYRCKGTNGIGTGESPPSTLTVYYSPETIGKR
Method: (§1) The following proteins were used for CD22 ligand binding: biotinylated human siglec-2/CD22 protein-His-Avitag (Acro Biosystems, Cat #SI2-H82E3), biotinylated mouse siglec-2-Fc-Avi (in-house production), and recombinant cynomolgus siglec-2/CD22 His-tag (R&D systems, Cat #9864-SL-050). Prior to immobilization, CD22 proteins were treated with SialoExo (Genovis, Cat #G1-SM1-020) for 4 hours at 37° C. to remove native sialic acid residues.
(§2) Capture of biotinylated CD22 constructs was performed using a Cytiva SA chip (BR100398) on a Biacore 8K instrument. Human siglec 2 was immobilized on channels 1-4 and mouse siglec 2 on channels 5-8 on the active flow cell (2) and the reference flow cell (1) was immobilized with biotinylated human FGFR2 Fc Avi, an unrelated protein, to account for any nonspecific binding. Human siglec 2 and Mouse siglec 2 were diluted in running buffer to 20 μg/mL and injected on the active flow cell (2) for 300 seconds at 5 μL/min, yielding about 3500 RU of captured constructs.
(§3) Binding experiments of siglec-ligand conjugated proteins or Siglec ligand compounds were performed on the surfaces prepared above in 10 mM HEPES, 150 mM NaCl, 0.05% Tween-20, pH 7.5, 1% DMSO as the running buffer. Compounds were serially diluted in running buffer from 50 μM to 97.6 nM and injected over both the reference and active flow cells for 90 seconds at 30 μL/min. The compounds were then allowed to dissociate from the surface for 120 seconds. No regeneration was required as the compounds completely dissociated from the surface after 30 seconds. Solvent correction was performed using 0.5, 1, 1.5, and 2% DMSO spike into running buffer without DMSO. Data was analyzed using steady-state analysis in Biacore Insight Evaluation Software, version 3.0.

[2] = molecular target: T2, biotinylated human siglec-2/CD22 protein-His-Avitag (Homo sapiens, UniProt P20273); experiment: SPR binding to human siglec-2/CD22; details: steady-state analysis, read-out: Human CD22 affinity
T2 construct: purchased Acro Biosystems SI2-H82E3
T2 sequence (P20273 20-847): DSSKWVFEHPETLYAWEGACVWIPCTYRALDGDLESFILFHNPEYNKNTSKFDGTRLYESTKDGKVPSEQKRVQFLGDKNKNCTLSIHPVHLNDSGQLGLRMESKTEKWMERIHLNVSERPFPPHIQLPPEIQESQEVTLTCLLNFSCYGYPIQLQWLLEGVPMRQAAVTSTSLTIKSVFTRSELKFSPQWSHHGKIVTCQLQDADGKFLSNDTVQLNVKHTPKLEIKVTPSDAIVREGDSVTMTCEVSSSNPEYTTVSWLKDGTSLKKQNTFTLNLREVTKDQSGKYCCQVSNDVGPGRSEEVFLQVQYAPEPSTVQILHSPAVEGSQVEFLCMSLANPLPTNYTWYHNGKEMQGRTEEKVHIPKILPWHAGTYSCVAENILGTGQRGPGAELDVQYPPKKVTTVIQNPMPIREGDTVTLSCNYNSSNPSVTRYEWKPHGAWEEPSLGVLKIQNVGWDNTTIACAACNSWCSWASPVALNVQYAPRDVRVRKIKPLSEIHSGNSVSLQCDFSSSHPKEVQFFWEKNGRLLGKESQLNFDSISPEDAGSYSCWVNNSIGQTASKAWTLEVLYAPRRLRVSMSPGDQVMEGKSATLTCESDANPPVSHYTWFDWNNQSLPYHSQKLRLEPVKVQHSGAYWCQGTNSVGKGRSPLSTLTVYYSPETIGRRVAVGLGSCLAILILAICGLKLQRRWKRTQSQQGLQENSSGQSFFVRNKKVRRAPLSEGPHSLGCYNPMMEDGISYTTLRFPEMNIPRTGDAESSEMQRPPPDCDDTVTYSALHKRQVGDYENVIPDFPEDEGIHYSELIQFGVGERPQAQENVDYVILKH
Method: as §1, §2, §3

[3] = molecular target: recombinant cynomolgus siglec-2/CD22 His-tag (Macaca fascicularis, UniProt A0A2K5WCZ6); experiment: SPR binding to cynomolgus siglec-2/CD22; details: steady-state analysis, read-out: Cyno CD22 affinity
Sequence of recombinant cynomolgus siglec-2/CD22 His-tag (A0A2K5WCZ6 entry or part of it): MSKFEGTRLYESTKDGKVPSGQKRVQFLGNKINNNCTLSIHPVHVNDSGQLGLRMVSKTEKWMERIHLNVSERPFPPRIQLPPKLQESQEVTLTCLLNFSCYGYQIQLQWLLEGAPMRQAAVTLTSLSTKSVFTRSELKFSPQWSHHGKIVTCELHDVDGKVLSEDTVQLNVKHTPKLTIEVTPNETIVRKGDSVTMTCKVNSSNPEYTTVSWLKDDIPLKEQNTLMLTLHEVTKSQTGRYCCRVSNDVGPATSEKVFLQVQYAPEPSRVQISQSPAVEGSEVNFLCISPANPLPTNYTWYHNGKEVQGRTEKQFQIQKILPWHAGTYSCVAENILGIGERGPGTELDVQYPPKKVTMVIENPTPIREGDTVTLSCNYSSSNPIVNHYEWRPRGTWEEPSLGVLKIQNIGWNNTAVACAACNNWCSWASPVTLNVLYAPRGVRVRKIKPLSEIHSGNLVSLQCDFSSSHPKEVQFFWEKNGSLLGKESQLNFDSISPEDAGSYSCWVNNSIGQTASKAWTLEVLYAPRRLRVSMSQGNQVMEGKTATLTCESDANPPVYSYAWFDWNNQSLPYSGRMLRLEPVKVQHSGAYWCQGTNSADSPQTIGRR
Method: as §1
Surface preparation for cyno CD22 protein consisted of amine coupling to Cytiva CM5 chip (Cytiva, Cat #BR100530) using the Cytiva amine coupling kit Type 2 (Cytiva, Cat #BR100633). Following the standard amine coupling protocols, EDC and NHS from the kit were mixed 1:1 and injected over flow cells 1 and 2. Cyno CD22 was then immobilized by injecting 10 μg/mL in Sodium Acetate, pH 5.5 onto flow cell (2) for 420 seconds at 10 uL/min, yielding approximately 2500 RU of captured protein. Any active carboxy groups were then capped with 1M Ethanolamine, pH 8.5 for 420 s on flow cells 1 and 2.
as §3

pKd [1]	pKd [2]	pKd [3]	Compound
> 6.00	> 6.00		C#Cc1ccc(CC(=O)NC[C@@H](O)[C@@H](O)[C@@H]2O[C@@](OCCCCCCNC(=O)CCCC)(C(=O)O)C[C@H](O)[C@H]2NC(=O)CO)cc1 [Compound 29, (2R,4S,5R,6R)-6-((1R,2R)-3-(2-(4-ethynylphenyl)acetamido)-1,2-dihydroxypropyl)-4-hydroxy-5-(2-hydroxyacetamido)-2-((6-pentanamidohexyl)oxy)tetrahydro-2H-pyran-2-carboxylic acid]
5.00 to 6.00	< 5.00	5.00 to 6.00	C#CCOCCOCCOCCOCCOCCNC(=O)N[C@H]1[C@H]([C@H](O)[C@H](O)CNC(=O)Cc2ccc(Cl)cc2)O[C@@](OCc2ccccc2)(C(=O)O)C[C@@H]1O [Compound 22, (2R,4S,5R,6R)-5-(3-(3,6,9,12,15-pentaoxaoctadec-17-yn-1-yl)ureido)-2-(benzyloxy)-6-((1R,2R)-3-(2-(4-chlorophenyl)acetamido)-1,2-dihydroxypropyl)-4-hydroxytetrahydro-2H-pyran-2-carboxylic acid]
5.00 to 6.00	5.00 to 6.00	5.00 to 6.00	C#CCOCCCCCCCc1ccc(CC(=O)NC[C@@H](O)[C@@H](O)[C@@H]2O[C@@](OCc3ccccc3)(C(=O)O)C[C@H](O)[C@H]2NC(=O)CO)cc1 [Compound 13, (2R,4S,5R,6R)-2-(benzyloxy)-6-((1R,2R)-1,2-dihydroxy-3-(2-(4-(7-(prop-2-yn-1-yloxy)heptyl)phenyl)acetamido)propyl)-4-hydroxy-5-(2-hydroxyacetamido)tetrahydro-2H-pyran-2-carboxylic acid]
5.00 to 6.00	5.00 to 6.00	5.00 to 6.00	C#CCO[C@H]1C[C@](OCc2ccccc2)(C(=O)O)O[C@@H]([C@H](O)[C@H](O)CNC(=O)Cc2ccc(Cl)cc2)[C@@H]1NC(=O)CO [Compound 18, (2R,4S,5R,6R)-2-(benzyloxy)-6-((1R,2R)-3-(2-(4-chlorophenyl)acetamido)-1,2-dihydroxypropyl)-5-(2-hydroxyacetamido)-4-(prop-2-yn-1-yloxy)tetrahydro-2H-pyran-2-carboxylic acid]
5.00 to 6.00	5.00 to 6.00	5.00 to 6.00	C#CCCCCCCCCOc1ccc(CC(=O)NC[C@@H](O)[C@@H](O)[C@@H]2O[C@@](OCc3ccccc3)(C(=O)O)C[C@H](O)[C@H]2NC(=O)CO)cc1 [Compound 7, (2R,4S,5R,6R)-2-(benzyloxy)-6-((1R,2R)-3-(2-(4-(dec-9-yn-1-yloxy)phenyl)acetamido)-1,2-dihydroxypropyl)-4-hydroxy-5-(2-hydroxyacetamido)tetrahydro-2H-pyran-2-carboxylic acid]
5.00 to 6.00	5.00 to 6.00		C#CCOc1ccc(CC(=O)NC[C@@H](O)[C@@H](O)[C@@H]2O[C@@](OCc3ccccc3)(C(=O)O)C[C@H](O)[C@H]2NC(=O)CO)cc1 [Compound 4, (2R,4S,5R,6R)-2-(benzyloxy)-6-((1R,2R)-1,2-dihydroxy-3-(2-(4-(prop-2-yn-1-yloxy)phenyl)acetamido)propyl)-4-hydroxy-5-(2-hydroxyacetamido)tetrahydro-2H-pyran-2-carboxylic acid]
5.00 to 6.00	5.00 to 6.00		O=C(Cc1ccc(OCc2cn(CCO)nn2)cc1)NC[C@@H](O)[C@@H](O)[C@@H]1O[C@@](OCc2ccccc2)(C(=O)O)C[C@H](O)[C@H]1NC(=O)CO [Compound 5, (2R,4S,5R,6R)-2-(benzyloxy)-6-((1R,2R)-1,2-dihydroxy-3-(2-(4-((1-(2-hydroxyethyl)-1H-1,2,3-triazol-4-yl)methoxy)phenyl)acetamido)propyl)-4-hydroxy-5-(2-hydroxyacetamido)tetrahydro-2H-pyran-2-carboxylic acid]
5.00 to 6.00	5.00 to 6.00		C#Cc1ccc(CC(=O)NC[C@@H](O)[C@@H](O)[C@@H]2O[C@@](OCCCCCCN)(C(=O)O)C[C@H](O)[C@H]2NC(=O)CO)cc1 [Compound 10, (2R,4S,5R,6R)-2-((6-aminohexyl)oxy)-6-((1R,2R)-3-(2-(4-ethynylphenyl)acetamido)-1,2-dihydroxypropyl)-4-hydroxy-5-(2-hydroxyacetamido)tetrahydro-2H-pyran-2-carboxylic acid]
5.00 to 6.00	5.00 to 6.00		O=C(Cc1ccc(-c2cn(CCO)nn2)cc1)NC[C@@H](O)[C@@H](O)[C@@H]1O[C@@](OCc2ccccc2)(C(=O)O)C[C@H](O)[C@H]1NC(=O)CO [Compound 2, (2R,4S,5R,6R)-2-(benzyloxy)-6-((1R,2R)-1,2-dihydroxy-3-(2-(4-(1-(2-hydroxyethyl)-1H-1,2,3-triazol-4-yl)phenyl)acetamido)propyl)-4-hydroxy-5-(2-hydroxyacetamido)tetrahydro-2H-pyran-2-carboxylic acid]
5.00 to 6.00	5.00 to 6.00		C#CCCCCCCC#Cc1ccc(CC(=O)NC[C@@H](O)[C@@H](O)[C@@H]2O[C@@](OCc3ccccc3)(C(=O)O)C[C@H](O)[C@H]2NC(=O)CO)cc1 [Compound 6, (2R,4S,5R,6R)-2-(benzyloxy)-6-((1R,2R)-3-(2-(4-(deca-1,9-diyn-1-yl)phenyl)acetamido)-1,2-dihydroxypropyl)-4-hydroxy-5-(2-hydroxyacetamido)tetrahydro-2H-pyran-2-carboxylic acid]
> 6.00	> 6.00		C#Cc1ccc(CC(=O)NC[C@@H](O)[C@@H](O)[C@@H]2O[C@@](OCCCCCCNc3c(NCCOC)c(=O)c3=O)(C(=O)O)C[C@H](O)[C@H]2NC(=O)CO)cc1 [Compound 26, (2R,4S,5R,6R)-6-((1R,2R)-3-(2-(4-ethynylphenyl)acetamido)-1,2-dihydroxypropyl)-4-hydroxy-5-(2-hydroxyacetamido)-2-((6-((2-((2-methoxyethyl)amino)-3,4-dioxocyclobut-1-en-1-yl)amino)hexyl)oxy)tetrahydro-2H-pyran-2-carboxylic acid]
